This is an account of results in US9914735B2, “Heteroaryl Syk inhibitors” (Boehringer Ingelheim International GmbH, priority 2014, dated 2018).

Holding throughout (assay type): biochemical
Test [1] deals with Recombinant human Syk (amino acids 342-635), GST-Syk kinase fusion protein (Homo sapiens (Human), UniProt P43405). The test can be described thus: Syk kinase test (Kinase Glo luminescence). As for the experimental part:
(§1) The output file of the reader is a csv file that contains the well number and measured relative light units (RLU). For data evaluation and calculation, the measurement of the negative control was set as 100% ctrl and the measurement of the positive control was set as 0% ctrl. Based on this values the % value for the measurement of each substance concentration was calculated using an Assay Explorer software (Accelrys). Normally, the % ctrl values calculated are between 0% and 100% values but may also occur outside these limits in individual cases based on variability or compound characteristics. The IC50 values were calculated from the % ctrl values using Assay Explorer software. Calculation:[y=(a−d)/(1+(x/c)^b)+d] a=low value, d=high value; x=conc M; c=IC50 M; b=hill; y=% ctrl.

The next test deals with FLT3 (Homo sapiens (Human), UniProt P36888). The test can be described thus: FLT3 kinase test (Z'-LYTE). The method, then: The activity of FLT3 is measured using the Z′-LYTETM assay technology from Invitrogen (#PV3191)
The reaction is started by addition of 2.5 μl of the 4×ATP solution.
Positive controls are reaction mixtures containing no test compound; negative controls (blanks) are reaction mixtures containing no kinase. As a further control, the phosphopeptide solution is added to wells without kinase (=100% phosphorylation control).
The reaction is performed for 1 h at room temperature before 5 μl of the development solution is added. After a further incubation for 1 h at room temperature 5 μl of the stop reagent is added.
The output text file is evaluated in an “MS-Excel—VB-Makro” and “GraphPadPrism” (Version 5) (GraphPad Software Inc.) is used to calculate the results. Data for the inhibition of FLT3 are reported in M. data for the inhibition of the protease are reported in % CTL.

The target in test [2] is Recombinant human Aurora B (amino acids 1-344) (Homo sapiens (Human), UniProt Q96GD4). Description: Aurora B kinase test (ADP Glo luminescence). As for the experimental part: The activity of the Aurora B kinase protein was determined using the ADP Glo® Luminescence Kinase test (Promega; V9103X).
Serial Dilution is done in 1:10 steps in 100% DMSO.
Then 20 μl Kinase detection mix (Detection Buffer #V913B Promega; Kinase Detection Substrate #V914B Promega) were added and incubated for 40 minutes at room temperature.
as §1, with “measured RLU.” for “measured relative light units (RLU).”, “as 0%” for “as 100%”, “as 100%” for “as 0%”, “software. Calculation: [y=(a−d)/(1+(x/c)^b)+d],” for “software. Calculation:[y=(a−d)/(1+(x/c)^b)+d]”

The mark [3] stands for this setting: Table 1, read-out: SYK-inhibition IC50-value.
The mark [4] stands for this setting: Table 1, read-out: FLT3-inhibition IC50-value.
[5] abbreviates: Table 1, read-out: AURB-inhibition IC50-value.

Read-outs that look alike come from different tables or passages of the source.

Chain of FLT3 (P36888 27-993): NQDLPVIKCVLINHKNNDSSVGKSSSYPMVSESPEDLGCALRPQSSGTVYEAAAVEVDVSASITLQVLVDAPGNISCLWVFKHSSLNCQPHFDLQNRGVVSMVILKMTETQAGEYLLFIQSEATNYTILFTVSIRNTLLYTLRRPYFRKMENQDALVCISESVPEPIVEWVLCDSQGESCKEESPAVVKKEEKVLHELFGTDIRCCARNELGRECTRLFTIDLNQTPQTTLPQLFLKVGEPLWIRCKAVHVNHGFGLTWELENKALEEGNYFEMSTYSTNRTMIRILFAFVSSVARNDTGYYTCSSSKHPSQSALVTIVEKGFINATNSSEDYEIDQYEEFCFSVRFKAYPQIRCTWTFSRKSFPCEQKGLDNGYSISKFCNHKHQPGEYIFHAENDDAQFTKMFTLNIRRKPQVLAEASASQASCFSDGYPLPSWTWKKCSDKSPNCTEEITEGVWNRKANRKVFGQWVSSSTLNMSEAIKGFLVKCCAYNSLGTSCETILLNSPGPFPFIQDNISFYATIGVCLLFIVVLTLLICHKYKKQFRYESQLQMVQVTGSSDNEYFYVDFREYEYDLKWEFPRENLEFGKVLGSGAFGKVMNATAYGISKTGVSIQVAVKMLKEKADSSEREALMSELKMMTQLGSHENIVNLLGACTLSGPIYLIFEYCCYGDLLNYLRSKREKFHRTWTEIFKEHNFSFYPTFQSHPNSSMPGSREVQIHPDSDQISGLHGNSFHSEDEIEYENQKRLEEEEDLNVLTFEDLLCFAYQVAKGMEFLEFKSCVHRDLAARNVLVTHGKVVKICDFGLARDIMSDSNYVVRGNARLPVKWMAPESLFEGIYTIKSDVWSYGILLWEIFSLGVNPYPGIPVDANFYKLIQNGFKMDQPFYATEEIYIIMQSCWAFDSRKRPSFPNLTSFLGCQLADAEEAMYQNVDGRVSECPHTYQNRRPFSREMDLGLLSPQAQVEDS
Chain of Recombinant human Aurora B (amino acids 1-344) (Q96GD4 whole entry, the tested form may be a part): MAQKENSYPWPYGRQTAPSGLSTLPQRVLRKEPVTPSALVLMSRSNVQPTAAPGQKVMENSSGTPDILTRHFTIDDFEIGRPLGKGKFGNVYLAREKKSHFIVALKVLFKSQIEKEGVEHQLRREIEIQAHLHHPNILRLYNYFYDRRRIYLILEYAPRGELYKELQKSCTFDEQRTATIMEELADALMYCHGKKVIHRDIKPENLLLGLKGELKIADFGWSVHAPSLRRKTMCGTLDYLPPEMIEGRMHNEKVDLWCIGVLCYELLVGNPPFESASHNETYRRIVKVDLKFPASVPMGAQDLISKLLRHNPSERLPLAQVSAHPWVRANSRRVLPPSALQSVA

On to `C[C@@H](Oc1nc(-c2cnn(C3CCCCO3)c2)cc2nn(C)cc12)[C@H]1CNC(=O)C1` (some centres unmarked) [Example 3], for which the IC50 in test [1] (setting [3]) is 0.0466 µM; at FLT3 (setting [4]), 17.4 µM; in test [2] (setting [5]) it was > 50 µM.
For the compound `CC(C)n1cc(-c2cc3nn(C)cc3c(O[C@H](C)[C@H]3CNC(=O)C3)n2)cn1` [Example 65, (4R)-4-[(1R)-1-[6-(1-iso-propylpyrazol-4-yl)-2-methyl-pyrazolo[4,3-c]pyridin-4-yl]-oxyethyl]pyrrolidin-2-one], the half-inhibitory concentration (IC50) in test [1] (setting [3]) was 0.0211 µM; on FLT3 (setting [4]), 14.8 µM; in test [2] (setting [5]) it was > 50 µM.
As for `C[C@@H](Oc1nc(-c2cnn([C@H]3CC[C@H](N4CCN(C)C(=O)C4)CC3)c2)cc2nn(C)cc12)[C@H]1CNC(=O)C1` [Example 12, 1-methyl-4-[4-[4-[2-methyl-4-[(1R)-1-[(3R)-5-oxopyrrolidin-3-yl]ethoxy]pyrazolo[4,3-c]pyridin-6-yl]pyrazol-1-yl]-cyclohexyl]piperazin-2-one], the 50% inhibitory concentration (IC50) came to 0.0123 µM in test [1] (setting [3]), 8.33 µM at FLT3 (setting [4]) and 34.1 µM in test [2] (setting [5]).
On to `C[C@@H](Oc1nc(-c2cnn(C3CCC(F)(F)CC3)c2)cc2nn(C)cc12)[C@H]1CNC(=O)C1` [Example 10, (4R)-4-[(1R)-1-[6-[1-(4,4-Difluorocyclohexyl)pyrazol-4-yl]-2-methyl-pyrazolo[4,3-c]pyridin-4-yl]oxyethyl]pyrrolidin-2-one], for which the IC50 in test [1] (setting [3]) was 0.0218 µM; at FLT3 (setting [4]) it was 8.03 µM; in test [2] (setting [5]) it was 36 µM.
As for `C[C@@H](Oc1nc(-c2ccc3c(c2)CCN(C)CC3)cc2nn(C)cc12)[C@H]1CNC(=O)C1` [Example 55, (4R)-4-[(1R)-1-[2-methyl-6-(3-methyl-1,2,4,5-tetrahydro-3-benzazepin-7-yl)pyrazolo-[4,3-c]pyridin-4-yl]oxyethyl]-pyrrolidin-2-one], the figures for the IC50 (in test [1] (setting [3]); at FLT3 (setting [4]); in test [2] (setting [5])) were 0.0436 µM, 3.07 µM and > 50 µM, respectively.
Turning to `C[C@@H](Oc1nc(-c2cnn(C3CCN(C)CC3)c2)cc2nn(C)cc12)[C@H]1CNC(=O)C1` [Example 82, (4R)-4-[(1R)-1-[2-Methyl-6-[1-(1-methyl-4-piperidyl)pyrazol-4-yl]pyrazolo [4,3-c]pyridin-4-yl]oxyethyl]pyrrolidin-2-one], the concentration for half-maximal inhibition (IC50) at FLT3 (setting [4]) was 7.78 µM; in test [2] (setting [5]), > 50 µM.
In the case of `C[C@@H](Oc1nc(-c2cnn(CCC(F)(F)F)c2)cc2nn(C)cc12)[C@H]1CNC(=O)C1` [Example 76, (4R)-4-[(1R)-1-[2-methyl-6-[1-(3,3,3-trifluoropropyl)-pyrazol-4-yl]pyrazolo[4,3-c]pyridin-4-yl]oxyethyl]-pyrrolidin-2-one], the IC50 amounted to 0.0583 µM in test [1] (setting [3]), 14.8 µM at FLT3 (setting [4]) and 46.2 µM in test [2] (setting [5]).
As for `C[C@@H](Oc1nc(-c2ccc(C3CC3)nc2)cc2nn(C)cc12)[C@H]1CNC(=O)C1` [Example 50, (4R)-4-[(1R)-1-[6-(6-Cyclopropyl-3-pyridyl)-2-methyl-pyrazolo[4,3-c]pyridine-4-yl]oxyethyl]pyrrolidin-2-one], the 50% inhibitory concentration (IC50) in test [1] (setting [3]) amounted to 0.0554 µM; at FLT3 (setting [4]), 9.52 µM; in test [2] (setting [5]), 48 µM.
For `Cc1cc(-c2cc3nn(C)cc3c(O[C@H](C)[C@H]3CNC(=O)C3)n2)ccc1N1CCCS1(=O)=O` [Example 71, (4R)-4-[(1R)-1-[6-[4-(1,1-dioxo-1,2-thiazolidin-2-yl)-3-methyl-phenyl]-2-methyl-pyrazolo[4,3-c]pyridin-4-yl]oxyethyl]pyrrolidin-2-one], the IC50 in test [1] (setting [3]) was 0.015 µM; at FLT3 (setting [4]), 7.65 µM; in test [2] (setting [5]) it was > 50 µM.
`C[C@@H](Oc1nc(-c2cc3cccc(Cl)c3[nH]2)cc2nn(C)cc12)[C@H]1CNC(=O)C1` [Example 77, (4R)-4-[(1R)-1-[6-(7-chloro-1H-indol-2-yl)-2-methyl-pyrazolo[4,3-c]pyridin-4-yl]oxyethyl]pyrrolidin-2-on]: the IC50 amounted to 0.0498 µM in test [1] (setting [3]), 3.75 µM on FLT3 (setting [4]) and 43.4 µM in test [2] (setting [5]).
With `C[C@@H](Oc1nc(-c2ccc3c(c2)CN(C)CC3)cc2nn(C)cc12)[C@H]1CNC(=O)C1` [Example 75, (4R)-4-[(1R)-1-[2-methyl-6-(2-methyl-3,4-dihydro-1H-isoquinolin-7-yl)pyrazolo[4,3-c]pyridin-4-yl]oxyethyl]-pyrrolidin-2-one], the IC50 in test [1] (setting [3]) turned out to be 0.0998 µM; at FLT3 (setting [4]), 1.59 µM; in test [2] (setting [5]) it was 8.54 µM.
For the compound `CCn1cc(-c2cc3nn(C)cc3c(O[C@H](C)[C@H]3CNC(=O)C3)n2)cn1` [Example 58, (4R)-4-[(1R)-1-[6-(1-ethylpyrazol-4-yl)-2-methyl-pyrazolo[4,3-c]pyridin-4-yl]oxyethyl]pyrrolidin-2-one], the IC50 was 0.0366 µM in test [1] (setting [3]), 17.1 µM on FLT3 (setting [4]) and > 50 µM in test [2] (setting [5]).
The like results for `C[C@@H](Oc1nc(-c2cnn(C3CCOCC3)c2)cc2nn(C)cc12)[C@H]1CNC(=O)C1` [Example 64, (4R)-4-[(1R)-1-[2-methyl-6-(1-tetrahydropyran-4-yl-pyrazol-4-yl)pyrazolo[4,3-c]pyridin-4-yl]oxyethyl]-pyrrolidin-2-one] were, in that order, 0.0258 µM, 21.6 µM and > 50 µM.
Consider `C[C@@H](Oc1cc(-c2ccc3c(c2)ncn3C)cc2ncccc12)[C@H]1CNC(=O)C1` [94 of WO 2013/014060], for which the values for the IC50 (in test [1] (read-out: IC50 in μM (SYK-Inhibition)); at FLT3 (read-out: IC50 in μM (FLT3-Inhibition)); in test [2] (read-out: IC50 in μM (AURB-Inhibition))) were 0.001 µM, 0.267 µM and 0.298 µM, respectively.
With `Cc1nn(C)cc1-c1cc2nn(C)cc2c(O[C@H](C)[C@H]2CNC(=O)C2)n1` [Example 68, (4R)-4-[(1R)-1-[6-(1,3-dimethylpyrazol-4-yl)-2-methyl-pyrazolo[4,3-c]pyridin-4-yl]oxyethyl]pyrrolidin-2-one], the half-maximal inhibitory concentration (IC50) in test [1] (setting [3]) was 0.0652 µM; on FLT3 (setting [4]), 22.4 µM; in test [2] (setting [5]), > 50 µM.
For the compound `COc1ccc2[nH]cc(-c3cc4nn(C)cc4c(O[C@H](C)[C@H]4CNC(=O)C4)n3)c2c1` [Example 53, (4R)-4-[(1R)-1-[6-(5-methoxy-1H-indol-3-yl)-2-methyl-pyrazolo[4,3-c]pyridin-4-yl]oxyethyl]pyrrolidin-2-one], the concentration for half-maximal inhibition (IC50) is 34.1 µM at FLT3 (setting [4]) and > 50 µM in test [2] (setting [5]).
Regarding `Cc1nccn1Cc1ccc(-c2cc3nn(C)cc3c(O[C@H](C)[C@H]3CNC(=O)C3)n2)cc1` [Example 17], the IC50 was 0.0316 µM in test [1] (setting [3]), 1.61 µM at FLT3 (setting [4]) and > 50 µM in test [2] (setting [5]).
With `C[C@@H](Oc1nc(-c2cc3nn(C)cc3c(=O)[nH]2)cc2nn(C)cc12)[C@H]1CNC(=O)C1` [Example 13, 2-Methyl-6-[2-methyl-4-[(1R)-1-[(3R)-5-oxopyrrolidin-3-yl]ethoxy]pyrazolo[4,3-c]pyridin-6-yl]-5H-pyrazolo[4,3-c]pyridin-4-one], the IC50 in test [1] (setting [3]) is 0.831 µM; on FLT3 (setting [4]), > 50 µM; in test [2] (setting [5]) it was > 50 µM.
As to `C[C@@H](Oc1nc(-c2cnn(C3CCNCC3)c2)cc2nn(C)cc12)[C@H]1CNC(=O)C1` [Example 9, (4R)-4-[(1R)-1-[2-Methyl-6-[1-(4-piperidyl)pyrazol-4-yl]pyrazolo[4,3-c]pyridin-4-yl]oxyethyl]pyrrolidin-2-one], the figures for the IC50 (in test [1] (setting [3]); at FLT3 (setting [4]); in test [2] (setting [5])) were 0.0424 µM, 3.67 µM and > 50 µM, respectively.
As for `C[C@@H](Oc1cc(-c2ccn(C)n2)cc2nn(C)cc12)[C@H]1CNC(=O)C1` [Example 14, (4R)-4-[(1R)-1-[2-methyl-6-(1-methylpyrazol-3-yl)indazol-4-yl]oxyethyl]-pyrrolidin-2-one], the half-maximal inhibitory concentration (IC50) in test [1] (setting [3]) was 0.0421 µM; at FLT3 (setting [4]), 40.8 µM.
Turning to `COc1cc(-c2cc3nn(C)cc3c(O[C@H](C)[C@H]3CNC(=O)C3)n2)ccc1OC1CCOCC1` [Example 73, (4R)-4-[(1R)-1-[6-(3-Methoxy-4-tetrahydropyran-4-yloxy-phenyl)-2-methyl-pyrazolo[4,3-c]pyridin-4-yl]oxyethyl]pyrrolidin-2-one], the concentration for half-maximal inhibition (IC50) came to 4.17 µM on FLT3 (setting [4]) and 49.1 µM in test [2] (read-out: AURB-inhibition IC50-value).
